Results on one compound are retold here after patent US20060058383A1 (priority 2004, published 2006).

For data set [1], the system named is human lymphoma cells (Raji). Nature of the data set: Apoptosis, annexin-V/PI flow cytometry. In kind it is cell-based. Conditions: for apoptotic cells: 30 μM in combination with 100 ng/ml rapamycin; for apoptosis: 30 μM. From the text:
Because the mTOR pathway plays an important role in promoting cellular nutrient metabolism and cell growth, and function to enhance cell survival downstream of the P13K/Akt pathway, the present inventors postulated that a simultaneous inhibition of mTOR and glycolysis, which serve as a major metabolic pathway for ATP generation in cancer cells, would severely impact cellular energy metabolism and have a potent cytotoxic effect against malignant cells. To test this possibility, rapamycin was used as an agent to inhibit mTOR, and glycolycin (3-bromo-2-oxopropionate, abbreviated herein as 3-BrOP) to inhibit glycolysis.
(§1) Cell growth inhibition was determined by direct counting of the cells after they were treated with rapamycin, 3-BrOP, or their combination. A Coulter Z2 Particle Count & Size Analyzer was used to determine cell counts at 24 h, 48 h, and 72 h after drug incubation. Apoptosis was measured by flow cytometric analysis of cells stained with annexin V-FITC and propidium iodide (PI). Cells were treated with the indicated compounds under various incubation conditions as described in the figure legends. The samples were collected, washed with cold PBS, and then suspended in annexin-V binding buffer. The cells were stained with annexin V-FITC for 15 min at room temperature, washed, and then stained with PI. The samples were analyzed using a FACSCalibur flow cytometer equipped with CELLQuestPro software (Becton-Dickinson, San Jose, Calif.).

The subject of another data set is HL-60 cells. In words: MTT assay, in vitro cytotoxic activity before and after storage of drug solutions. Conditions: pH 7.0, 72 h drug incubation. In kind it is cell-based, human.
A short description of data set [2]: Stability of neutral drug solution on storage.
Data set [3] has as its system Raji cells. Nature of the data set: Cell growth by direct cell counting (Coulter Z2). In kind it is cell-based, human. As to the method: A different assay was then used to further confirm the synergy between rapamycin and 3-BrOP. Raji cells were treated with 30 μM 3-BrOP, 100 ng/ml rapamycin, or their combination, and the numbers of cells were directly counted for consecutive 3 days, using a Coulter Z2 Particle Count & Size Analyzer.
as §1

Data set [4] relates to Raji cells. Nature of the data set: Cellular ATP pool by HPLC. In kind it is cell-based, human. As to the method:
HPLC analysis was then used to determine cellular ATP pool in an attempt to understand the biochemical basis of the synergistic activity of rapamycin and 3-BrOP. Raji cells were treated with various concentrations of 3-BrOP in the presence and absence of rapamycin (100 ng/ml) for 6 h, and cellular ATP and other nucleotide pools were measured by HPLC analysis as described in Examples herein.
Because this ATP depletion occurred before apoptosis became detectable, it seems that the enhancement of ATP depletion might be a biochemical mechanism by which rapamycin promote the cytotoxic effect of 3-BrOP. […]
After cells were treated with rapamycin and 3-BrOP under the desired conditions, cellular glucose uptake was measured by incubating the cells in glucose-free RPMI 1640 media with 0.2 μCi/ml of [^3H]-2-deoxyglucose (specific activity, 40 Ci/mmol) for 60 min. After the samples were washed three times with cold PBS, the radioactivity in the cell pellets was quantified by liquid scintillation counting. […] Intracellular nucleotides were extracted from the cells with 0.4 N of perchloric acid (PCA) for 10 min in ice-bath, neutralization with concentrated KOH to pH 7.0, and analyzed by HPLC analysis as described previously (Xu et al., 2005; Seymour et al., 1996). […] The relative cellular ATP levels were expressed as percent of the control cells.

The subject of data set [5] is p70S6K, 4E-BP-1 and BAD phosphorylation in Raji cells. In words: Phosphorylation of mTOR downstream targets and BAD, western blot. In kind it is cell-based, human. As to the method: The phosphorylation of p70S6K and 4E-BP1, two target molecules of mTOR, was examined as indications of mTOR inhibition.
The effect of rapamycin on BAD phosphorylation in 3-BrOP-treated cells was examined.
Protein lysates were prepared from the control and drug-treated cells, and separated by electrophoresis on 10% SDS-PAGE. […] The antibodies were dilute at 1:1,000 unless indicated otherwise. The bound primary antibodies were detected using appropriate horseradish peroxidase-conjugated secondary antibodies, followed by detection with a SuperSignal enhanced chemiluminescence kit (Pierce, Rockford, Ill.). For sequential blotting, the membranes were stripped with a stripping buffer (Pierce, Rockford, Ill.) followed by re-blotting with proper antibodies.
For orientation: A western blot detects proteins with antibodies after separation by electrophoresis.

For data set [6] the following is noted: mouse, in vivo.

As for `CCCOC(=O)C(=O)CBr` [Glycolycin, propyl 3-bromo-2-oxopropionate], the apoptotic cells in data set [1] (24 h) was determined as 38%; in data set [1] (48 h), 79%. The apoptosis in data set [1] (24 h) is listed as 19%; in data set [1] (48 h) it was 49%. Also, the “% Cell Survival” value is 19.3 ± 5.7% in the data set with HL-60 cells (5 μM, fresh drug solution); 3.0 ± 1.3% in the data set on HL-60 cells (10 μM, drug stored for 3 weeks at 4° C.); 2.5 ± 0.8% with HL-60 cells (10 μM, fresh drug solution); 2.9 ± 1.2% with HL-60 cells (30 μM, drug stored for 3 weeks at 4° C.); 3.7 ± 0.6% in the data set with HL-60 cells (30 μM, fresh drug solution); 2.5 ± 0.9% in the data set on HL-60 cells (100 μM, drug stored for 3 weeks at 4° C.). Further, in the data set with HL-60 cells (100 μM, fresh drug solution), the “% Cell Survival” value came out at 3.5 ± 1.7%. The “activity of solution after storage” value in data set [2] (kept at 4° C. for 3 weeks) is recorded as “remained stable”. In addition, the “stability of solution at neutral pH” value in data set [2] (pH 7.0, kept at 4° C.) is given as “stable”. In the data set with Raji cells [3] (30 μM alone, up to 72 h), the “decrease in cell numbers” value is recorded as roughly 35%. Moreover, the cell growth result in the data set on Raji cells [3] (30 μM in combination with 100 ng/ml rapamycin) is reported as “almost complete inhibition of cell growth”. Besides, the “cellular ATP pool” value is listed as “significantly enhanced the depletion of cellular ATP” in the data set on Raji cells [4] (6-h treatment after pre-incubation with 100 ng/ml rapamycin for 18 h) and “concentration-dependent decrease” in the data set on Raji cells [4] (various concentrations, 6 h). The “BAD phosphorylation at Ser112” value in data set [5] (20 μM, 6 hours) is given as “did not reduce”; in data set [5] (40 μM in the presence of rapamycin (100 ng/ml)), “complete abolished”; in data set [5] (40 μM, 6 hours), “substantial decrease”. Besides, the “phosphorylation of P70 S6K at Thr389 and 4E-BP-1 at Ser65” value in data set [5] (40 μM, 6 hours) is reported as “some inhibition”. Further, the toxicity in mice result in data set [6] is reported as “No obvious toxicity”. The “toxicity in animals, such as mice” value in data set [6] (5 mg/kg) was “no apparent toxicity”.
